Reference: ChEMBL document CHEMBL3885861, “Open TG-GATES”

Species: Rattus norvegicus
Assay: Open TG-GATES - Regimen: Daily Repeat
Type: toxicity, organism-based, Sprague-Dawley
Parameters: regimen Daily Repeat, gender Male, age 6 weeks
Details: in vivo, po, 6 mg/kg, route gavage, dose level High; for APTT / Bas / Eos / Fbg / Hb / Ht / Lym / MCH / MCHC / MCV / Mono / Neu / PT / Plat / RBC / Ret / WBC: tissue Blood; for KIDNEY_L / KIDNEY_R / KIDNEY_TOTAL: tissue Kidney; for LIVER: tissue Liver; for A/G / ALP / ALT / AST / BUN / CRE / Ca / Cl / DBIL / GLC / IP / K / LDH / Na / PL / RALB / TBIL / TC / TG / TP / gamma-GTP: tissue Plasma

O=NN(CCCl)C(=O)NC1CCCCC1 [LOMUSTINE]
TERMINAL_BW (72 h, time 3 day): 213.1 g
APTT (72 h, time 3 day): 16.1 s
Bas (72 h, time 3 day): 0%
Eos (72 h, time 3 day): 0.6%
Fbg (72 h, time 3 day): 212.8 mg/dL
Hb (72 h, time 3 day): 13 g/dL
Ht (72 h, time 3 day): 38.9%
Lym (72 h, time 3 day): 86%
MCH (72 h, time 3 day): 21.3 pg
MCHC (72 h, time 3 day): 33.3%
MCV (72 h, time 3 day): 64.1 fL
Mono (72 h, time 3 day): 5.6%
Neu (72 h, time 3 day): 8%
PT (72 h, time 3 day): 11.9 s
Plat (72 h, time 3 day): 114.8 x10_4/uL
RBC (72 h, time 3 day): 607.2 x10_4/ul
Ret (72 h, time 3 day): 6.1%
WBC (72 h, time 3 day): 100.8 x10_2/uL
KIDNEY_L (72 h, time 3 day): 1 g
KIDNEY_R (72 h, time 3 day): 1 g
KIDNEY_TOTAL (72 h, time 3 day): 2 g
LIVER (72 h, time 3 day): 10.2 g
A/G (72 h, time 3 day): 2.2
ALP (72 h, time 3 day): 1003.2 IU/L
ALT (72 h, time 3 day): 30.4 IU/L
AST (72 h, time 3 day): 65 IU/L
BUN (72 h, time 3 day): 15.6 mg/dL
CRE (72 h, time 3 day): 0.5 mg/dL
Ca (72 h, time 3 day): 10.8 mg/dL
Cl (72 h, time 3 day): 104.8 meq/L
DBIL (72 h, time 3 day): 0.028 mg/dL
GLC (72 h, time 3 day): 179 mg/dL
IP (72 h, time 3 day): 9 mg/dL
K (72 h, time 3 day): 4.7 meq/L
LDH (72 h, time 3 day): 105.4 IU/L
Na (72 h, time 3 day): 139 meq/L
PL (72 h, time 3 day): 136.6 mg/dL
RALB (72 h, time 3 day): 3.9 g/dL
TBIL (72 h, time 3 day): 0.3 mg/dL
TC (72 h, time 3 day): 75.6 mg/dL
TG (72 h, time 3 day): 56.4 mg/dL
TP (72 h, time 3 day): 5.8 g/dL
gamma-GTP (72 h, time 3 day): 1.8 IU/L
TERMINAL_BW ([…], time 7 day): 225.8 g
TERMINAL_BW ([…], time 14 day): 229.7 g
TERMINAL_BW ([…], time 28 day): 202.6 g
APTT ([…], time 7 day): 15.7 s
Bas ([…], time 7 day): 0%
Eos ([…], time 7 day): 0.4%
Fbg ([…], time 7 day): 237.4 mg/dL
Hb ([…], time 7 day): 14.3 g/dL
Ht ([…], time 7 day): 43.1%
Lym ([…], time 7 day): 80.6%
MCH ([…], time 7 day): 20.9 pg
MCHC ([…], time 7 day): 33.3%
MCV ([…], time 7 day): 62.9 fL
Mono ([…], time 7 day): 8.8%
Neu ([…], time 7 day): 10.2%
PT ([…], time 7 day): 11.7 s
Plat ([…], time 7 day): 124 x10_4/uL
RBC ([…], time 7 day): 686.4 x10_4/ul
Ret ([…], time 7 day): 3.4%
WBC ([…], time 7 day): 73.5 x10_2/uL
APTT ([…], time 14 day): 15.8 s
Bas ([…], time 14 day): 0%
Eos ([…], time 14 day): 0.6%
Fbg ([…], time 14 day): 237.4 mg/dL
Hb ([…], time 14 day): 15.1 g/dL
Ht ([…], time 14 day): 44.8%
Lym ([…], time 14 day): 75.4%
MCH ([…], time 14 day): 20.1 pg
MCHC ([…], time 14 day): 33.7%
MCV ([…], time 14 day): 59.8 fL
Mono ([…], time 14 day): 14.4%
Neu ([…], time 14 day): 9.6%
PT ([…], time 14 day): 11.2 s
Plat ([…], time 14 day): 133.2 x10_4/uL
RBC ([…], time 14 day): 750 x10_4/ul
Ret ([…], time 14 day): 1.2%
WBC ([…], time 14 day): 75.3 x10_2/uL
APTT ([…], time 28 day): 15.2 s
Bas ([…], time 28 day): 0%
Eos ([…], time 28 day): 0.8%
Fbg ([…], time 28 day): 255.7 mg/dL
Hb ([…], time 28 day): 15.6 g/dL
Ht ([…], time 28 day): 45.3%
Lym ([…], time 28 day): 58.5%
MCH ([…], time 28 day): 18.9 pg
MCHC ([…], time 28 day): 34.5%
MCV ([…], time 28 day): 54.6 fL
Mono ([…], time 28 day): 22.5%
Neu ([…], time 28 day): 18.8%
PT ([…], time 28 day): 11.6 s
Plat ([…], time 28 day): 121.1 x10_4/uL
RBC ([…], time 28 day): 832.2 x10_4/ul
Ret ([…], time 28 day): 2.5%
WBC ([…], time 28 day): 114.2 x10_2/uL
KIDNEY_L ([…], time 7 day): 1 g
KIDNEY_R ([…], time 7 day): 1 g
KIDNEY_TOTAL ([…], time 7 day): 2.1 g
KIDNEY_L ([…], time 14 day): 1.1 g
KIDNEY_R ([…], time 14 day): 1.1 g
KIDNEY_TOTAL ([…], time 14 day): 2.1 g
KIDNEY_L ([…], time 28 day): 1.4 g
KIDNEY_R ([…], time 28 day): 1.3 g
KIDNEY_TOTAL ([…], time 28 day): 2.7 g
LIVER ([…], time 7 day): 10.6 g
LIVER ([…], time 14 day): 10.5 g
LIVER ([…], time 28 day): 9.5 g
A/G ([…], time 7 day): 1.7
ALP ([…], time 7 day): 656.6 IU/L
ALT ([…], time 7 day): 48.4 IU/L
AST ([…], time 7 day): 97 IU/L
BUN ([…], time 7 day): 16.6 mg/dL
CRE ([…], time 7 day): 0.5 mg/dL
Ca ([…], time 7 day): 11.2 mg/dL
Cl ([…], time 7 day): 105.6 meq/L
DBIL ([…], time 7 day): 0.03 mg/dL
GLC ([…], time 7 day): 170.4 mg/dL
IP ([…], time 7 day): 7.3 mg/dL
K ([…], time 7 day): 4.7 meq/L
LDH ([…], time 7 day): 139.6 IU/L
Na ([…], time 7 day): 139.2 meq/L
PL ([…], time 7 day): 156 mg/dL
RALB ([…], time 7 day): 3.8 g/dL
TBIL ([…], time 7 day): 0.3 mg/dL
TC ([…], time 7 day): 98.4 mg/dL
TG ([…], time 7 day): 55.8 mg/dL
TP ([…], time 7 day): 6.1 g/dL
gamma-GTP ([…], time 7 day): 2.6 IU/L
A/G ([…], time 14 day): 1.6
ALP ([…], time 14 day): 694.4 IU/L
ALT ([…], time 14 day): 101.6 IU/L
AST ([…], time 14 day): 223.6 IU/L
BUN ([…], time 14 day): 23.4 mg/dL
CRE ([…], time 14 day): 0.6 mg/dL
Ca ([…], time 14 day): 11.3 mg/dL
Cl ([…], time 14 day): 105.8 meq/L
DBIL ([…], time 14 day): 0.3 mg/dL
GLC ([…], time 14 day): 159.8 mg/dL
IP ([…], time 14 day): 6.4 mg/dL
K ([…], time 14 day): 4.7 meq/L
LDH ([…], time 14 day): 210.6 IU/L
Na ([…], time 14 day): 139.6 meq/L
PL ([…], time 14 day): 236.8 mg/dL
RALB ([…], time 14 day): 3.8 g/dL
TBIL ([…], time 14 day): 0.4 mg/dL
TC ([…], time 14 day): 159.8 mg/dL
TG ([…], time 14 day): 48.2 mg/dL
TP ([…], time 14 day): 6.2 g/dL
gamma-GTP ([…], time 14 day): 4.6 IU/L
A/G ([…], time 28 day): 1.3
ALP ([…], time 28 day): 520.8 IU/L
ALT ([…], time 28 day): 153.2 IU/L
AST ([…], time 28 day): 484.2 IU/L
BUN ([…], time 28 day): 31.2 mg/dL
CRE ([…], time 28 day): 0.2 mg/dL
Ca ([…], time 28 day): 11.3 mg/dL
Cl ([…], time 28 day): 106.2 meq/L
DBIL ([…], time 28 day): 3.9 mg/dL
GLC ([…], time 28 day): 137 mg/dL
IP ([…], time 28 day): 5.9 mg/dL
K ([…], time 28 day): 4.8 meq/L
LDH ([…], time 28 day): 298.8 IU/L
Na ([…], time 28 day): 142.2 meq/L
PL ([…], time 28 day): 301 mg/dL
RALB ([…], time 28 day): 3.5 g/dL
TBIL ([…], time 28 day): 3.3 mg/dL
TC ([…], time 28 day): 207.2 mg/dL
TG ([…], time 28 day): 118 mg/dL
TP ([…], time 28 day): 6.1 g/dL
gamma-GTP ([…], time 28 day): 11.8 IU/L
